Assay [1] concerns Tconvs (CD4+Foxp3-). The assay is described as follows: pAkt (S473) phosphorylation by flow cytometry in activated Tconvs. The assay is classed as cell-based, mouse. To be noted: 10 nM, 100 nM and 1 μM, 72 hrs, anti-CD3/anti-CD28/IL-2 activated. As to the method:
(§1) Negative selection of CD4 T-cells from splenocytes was performed using magnetic bead separation technique according to the manufacturer's recommendations R&D Systems (Minneapolis, Minn.). Tregs (CD4+Foxp3+) and Tconvs (CD4+Foxp3-) were sorted from enriched CD4 cells using FACS ARIA II cell sorter (BD Biosciences).
(§2) Sorted Tregs and Tconvs were labeled with VCT according to the manufacturer's protocol (Life Technologies, NY). Cells stimulated with and without inhibitors in the presence of 10 μg/mL plate-bound anti-CD3, 2.5 μg/mL soluble anti-CD28, and 100 IU/mL IL-2. After 3 days, cells were stained with live/dead cell stain (Life Technologies, NY), fixed, permeabelized and stained with anti-CD4-FITC and anti-Foxp3-AlexaFluor 647. For pAkt (S473) and pS6 analysis, the signal was amplified by using a biotin-conjugated donkey anti-rabbit antibody (BD Biosciences) and Streptavidin-PE. After staining, cells were acquired on LSRII SORP flow cytometer and analyzed using FlowJo software (Tree Star).
(§3) The phosphorylation status of Akt (S473) in activated Tregs and Tconvs was measured by flow cytometry after treatment with titrated concentrations of the individual inhibitors. The concentrations choice was based on previously published IC50 of the inhibitors (Table 1) and the in-vitro viability of T-cells. Concentrations that maintain more than 70% viability of the T-cells were used.
Background: A flow cytometer gives signals particle by particle.

In assay [2] the test system is Tregs (CD4+Foxp3+). Kind of assay: Continuous inhibition of PI3Kδ in vivo: Tregs, CD4 and CD8 cells, incl. tumor infiltration.
Assay [3] has as its system Tregs (CD4+Foxp3+). Kind of assay: pAkt (S473) phosphorylation by flow cytometry in activated Tregs. The assay is classed as cell-based, mouse. Conditions: 10 nM, 100 nM and 1 μM, 72 hrs, anti-CD3/anti-CD28/IL-2 activated. As for the experimental part: as §1, §2, §3
Assay [4] concerns Tconvs (CD4+Foxp3-). Kind of assay: Violet Cell Trace proliferation assay, Tconvs. Type of assay: cell-based, mouse. Conditions: all tested concentrations, 3 days, anti-CD3/anti-CD28/IL-2.
Method: (§4) Sorted Tregs and Tconvs were labeled with VCT according to the manufacturer's protocol (Life Technologies, NY). Cells stimulated with and without inhibitors in the presence of 10 μg/mL plate-bound anti-CD3, 2.5 μg/mL soluble anti-CD28, and 100 IU/mL IL-2. After 3 days, cells were stained with live/dead cell stain (Life Technologies, NY), fixed, permeabelized and stained with anti-CD4-FITC and anti-Foxp3-AlexaFluor 647. […] After staining, cells were acquired on LSRII SORP flow cytometer and analyzed using FlowJo software (Tree Star).
Another assay deals with PI3Kδ (Homo sapiens, UniProt O00329). To be noted: previously published IC50; cited from earlier work.
For another assay, the target named is PI3Kα (Homo sapiens, UniProt P42336). Conditions: previously published IC50; cited from earlier work.
Another assay addresses PI3Kγ (Homo sapiens, UniProt P48736). To be noted: previously published IC50; cited from earlier work.
For assay [5], the system named is Tregs (CD4+Foxp3+). The assay is described as follows: Violet Cell Trace proliferation assay, Tregs. Conditions: all tested concentrations, 3 days, anti-CD3/anti-CD28/IL-2. Type of assay: cell-based, mouse.
Method: as §4

Chain of PI3Kα (P42336 whole entry, species assumed): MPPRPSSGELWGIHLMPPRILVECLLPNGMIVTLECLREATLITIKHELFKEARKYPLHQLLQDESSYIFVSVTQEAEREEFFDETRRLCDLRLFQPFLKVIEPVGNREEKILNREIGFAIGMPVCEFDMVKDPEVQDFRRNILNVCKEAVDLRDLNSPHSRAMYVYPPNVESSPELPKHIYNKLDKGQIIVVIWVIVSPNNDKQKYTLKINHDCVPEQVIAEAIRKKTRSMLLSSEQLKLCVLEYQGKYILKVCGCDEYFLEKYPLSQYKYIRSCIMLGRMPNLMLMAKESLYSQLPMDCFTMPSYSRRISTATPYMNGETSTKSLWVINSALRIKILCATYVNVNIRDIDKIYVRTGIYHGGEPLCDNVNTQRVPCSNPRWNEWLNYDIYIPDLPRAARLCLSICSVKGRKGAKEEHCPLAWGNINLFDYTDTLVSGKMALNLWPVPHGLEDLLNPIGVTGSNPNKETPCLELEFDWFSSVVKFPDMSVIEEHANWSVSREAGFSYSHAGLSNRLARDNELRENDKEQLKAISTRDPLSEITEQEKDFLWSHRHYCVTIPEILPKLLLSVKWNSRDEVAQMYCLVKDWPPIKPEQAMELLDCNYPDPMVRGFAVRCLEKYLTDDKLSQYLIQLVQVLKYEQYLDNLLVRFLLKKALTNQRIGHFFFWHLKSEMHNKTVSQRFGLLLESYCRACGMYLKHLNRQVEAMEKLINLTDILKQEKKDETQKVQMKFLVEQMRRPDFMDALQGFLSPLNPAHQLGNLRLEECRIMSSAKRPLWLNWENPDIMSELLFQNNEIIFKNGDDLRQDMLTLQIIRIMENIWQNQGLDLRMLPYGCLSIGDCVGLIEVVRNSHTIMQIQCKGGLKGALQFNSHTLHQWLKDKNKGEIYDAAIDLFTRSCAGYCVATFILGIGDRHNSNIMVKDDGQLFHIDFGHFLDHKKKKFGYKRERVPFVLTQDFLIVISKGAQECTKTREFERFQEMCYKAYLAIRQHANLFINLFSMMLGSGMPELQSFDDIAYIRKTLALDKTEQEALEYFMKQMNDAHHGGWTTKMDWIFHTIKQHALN
Chain of PI3Kδ (O00329 whole entry): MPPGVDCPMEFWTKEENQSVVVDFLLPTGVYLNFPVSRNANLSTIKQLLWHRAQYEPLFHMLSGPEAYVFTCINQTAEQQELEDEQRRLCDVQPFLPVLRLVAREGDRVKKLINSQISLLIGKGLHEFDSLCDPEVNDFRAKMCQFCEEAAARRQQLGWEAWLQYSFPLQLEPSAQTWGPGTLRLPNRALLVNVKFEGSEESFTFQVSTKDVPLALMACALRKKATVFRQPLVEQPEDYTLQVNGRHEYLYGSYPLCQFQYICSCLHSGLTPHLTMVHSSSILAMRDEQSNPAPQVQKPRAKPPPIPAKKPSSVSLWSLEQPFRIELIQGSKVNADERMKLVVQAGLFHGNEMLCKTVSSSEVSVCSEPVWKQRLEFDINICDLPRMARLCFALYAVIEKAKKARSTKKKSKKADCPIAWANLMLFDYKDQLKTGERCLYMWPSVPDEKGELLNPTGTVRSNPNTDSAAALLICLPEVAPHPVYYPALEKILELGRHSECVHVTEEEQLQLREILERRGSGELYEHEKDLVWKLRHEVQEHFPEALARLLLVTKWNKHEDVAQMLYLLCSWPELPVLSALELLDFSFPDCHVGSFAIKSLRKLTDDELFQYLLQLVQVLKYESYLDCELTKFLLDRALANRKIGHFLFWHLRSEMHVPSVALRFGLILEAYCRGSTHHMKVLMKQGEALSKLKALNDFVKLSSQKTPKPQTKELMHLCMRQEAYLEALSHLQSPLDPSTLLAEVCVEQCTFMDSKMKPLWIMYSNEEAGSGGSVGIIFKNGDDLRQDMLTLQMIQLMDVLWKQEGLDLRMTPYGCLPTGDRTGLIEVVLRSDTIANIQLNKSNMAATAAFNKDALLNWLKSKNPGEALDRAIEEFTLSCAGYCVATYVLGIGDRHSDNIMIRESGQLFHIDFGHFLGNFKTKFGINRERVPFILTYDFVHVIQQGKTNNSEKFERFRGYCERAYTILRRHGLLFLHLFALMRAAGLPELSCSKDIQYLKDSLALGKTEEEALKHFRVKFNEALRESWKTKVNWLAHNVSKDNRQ
Chain of PI3Kδ (P27986 whole entry partner): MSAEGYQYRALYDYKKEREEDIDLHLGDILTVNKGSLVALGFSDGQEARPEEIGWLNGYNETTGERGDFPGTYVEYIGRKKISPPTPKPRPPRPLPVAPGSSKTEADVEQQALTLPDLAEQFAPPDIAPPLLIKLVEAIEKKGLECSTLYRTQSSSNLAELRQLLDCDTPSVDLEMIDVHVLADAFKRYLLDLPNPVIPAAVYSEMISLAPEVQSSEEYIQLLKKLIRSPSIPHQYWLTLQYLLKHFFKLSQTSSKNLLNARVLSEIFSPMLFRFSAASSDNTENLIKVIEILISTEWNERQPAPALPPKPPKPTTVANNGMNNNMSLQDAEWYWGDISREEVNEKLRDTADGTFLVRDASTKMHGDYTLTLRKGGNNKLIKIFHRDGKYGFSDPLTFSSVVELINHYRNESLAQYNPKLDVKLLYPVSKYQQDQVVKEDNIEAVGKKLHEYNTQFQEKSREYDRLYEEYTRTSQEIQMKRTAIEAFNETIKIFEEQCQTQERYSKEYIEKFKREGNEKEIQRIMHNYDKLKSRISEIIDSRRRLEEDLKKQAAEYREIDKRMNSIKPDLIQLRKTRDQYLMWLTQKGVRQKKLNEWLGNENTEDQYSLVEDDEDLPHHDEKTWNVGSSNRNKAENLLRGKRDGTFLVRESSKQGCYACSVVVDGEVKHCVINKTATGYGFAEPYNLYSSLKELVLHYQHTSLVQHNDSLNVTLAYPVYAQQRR
Chain of PI3Kγ (P48736 whole entry, species assumed): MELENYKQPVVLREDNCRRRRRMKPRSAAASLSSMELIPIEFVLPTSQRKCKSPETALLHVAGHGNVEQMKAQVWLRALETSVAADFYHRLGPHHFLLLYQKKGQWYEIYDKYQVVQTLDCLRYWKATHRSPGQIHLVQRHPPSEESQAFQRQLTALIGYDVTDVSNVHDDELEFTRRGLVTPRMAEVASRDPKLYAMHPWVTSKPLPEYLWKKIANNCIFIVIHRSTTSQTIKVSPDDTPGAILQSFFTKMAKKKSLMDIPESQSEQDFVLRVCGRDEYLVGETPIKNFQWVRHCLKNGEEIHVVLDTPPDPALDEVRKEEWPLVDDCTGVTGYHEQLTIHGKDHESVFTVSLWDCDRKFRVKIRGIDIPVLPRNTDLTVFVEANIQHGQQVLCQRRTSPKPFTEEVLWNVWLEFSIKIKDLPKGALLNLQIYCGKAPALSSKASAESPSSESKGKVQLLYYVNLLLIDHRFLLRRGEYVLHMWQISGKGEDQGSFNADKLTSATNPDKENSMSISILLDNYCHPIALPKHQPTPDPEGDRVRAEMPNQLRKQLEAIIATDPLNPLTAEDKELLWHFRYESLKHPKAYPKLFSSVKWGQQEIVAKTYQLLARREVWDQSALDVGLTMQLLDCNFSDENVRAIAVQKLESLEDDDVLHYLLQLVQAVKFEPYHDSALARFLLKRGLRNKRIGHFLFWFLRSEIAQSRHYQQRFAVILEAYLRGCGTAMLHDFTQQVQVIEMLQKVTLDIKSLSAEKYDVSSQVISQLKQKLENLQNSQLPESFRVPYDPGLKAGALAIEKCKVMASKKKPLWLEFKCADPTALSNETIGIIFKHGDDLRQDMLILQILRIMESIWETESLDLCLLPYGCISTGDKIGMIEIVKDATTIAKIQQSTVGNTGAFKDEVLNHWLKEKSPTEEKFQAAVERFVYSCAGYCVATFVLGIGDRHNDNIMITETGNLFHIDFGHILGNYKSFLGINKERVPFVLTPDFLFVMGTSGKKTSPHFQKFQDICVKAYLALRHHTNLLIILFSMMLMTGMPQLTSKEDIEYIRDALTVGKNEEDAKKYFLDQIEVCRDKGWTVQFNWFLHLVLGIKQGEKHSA

Turning to `CC[C@H](Nc1ncnc2[nH]cnc12)c1nc2cccc(F)c2c(=O)n1-c1ccccc1` [CAL-101], in the assay with Tconvs (CD4+Foxp3-) [1], the “inhibition of pAkt (S473) in Tconvs” value is “no effect”. Also, the “CD4 and CD8 cells in tumor (per 10^6 of CD45+CD3+)” value in the assay with Tregs (CD4+Foxp3+) [2] (10 mg/kg, continuous treatment) is on record as “no effect”. Further, in the assay on Tregs (CD4+Foxp3+) [2] (day 26 vs day 12 baseline and vehicle), the “CD4 and CD8 cells under continuous treatment” value was “no effect”.
On to `Cc1cc(C(C)Nc2ccccc2)c2nc(N3CCOCC3)cc(=O)n2c1` (stereo not drawn) [TGX-221], for which the “inhibition of pAkt (S473) in Tregs” value with Tregs (CD4+Foxp3+) [3] was “No remarkable inhibition”. Also, the “inhibition of proliferation of Tconvs” value in the assay with Tconvs (CD4+Foxp3-) [4] was “no inhibition”. Also, the results for the IC50 on PI3Kδ, on PI3Kα and on PI3Kγ were 0.1 µM, 5 µM and above 10 µM, respectively. Also, the “inhibition of pAkt (S473) in Tconvs” value in the assay on Tconvs (CD4+Foxp3-) [1] was “No remarkable inhibition”. Moreover, the “inhibition of proliferation of Tregs” value with Tregs (CD4+Foxp3+) [5] is “no inhibition”.
Take `Cc1nc(NC(=O)N2CCC[C@H]2C(N)=O)sc1-c1csc(C(C)(C)C)n1` [A66]: the “inhibition of pAkt (S473) in Tregs” value in the assay with Tregs (CD4+Foxp3+) [3] is given as “No remarkable inhibition”. Moreover, in the assay with Tconvs (CD4+Foxp3-) [1], the “inhibition of pAkt (S473) in Tconvs” value is given as “No remarkable inhibition”.

As usually defined, the IC50 is the midpoint of a concentration-inhibition curve.

The record behind these values is patent US20210196817A1, “Compositions and Methods for Selectively Modulating Tregs” (Augusta University Research Institute, Inc., priority 2014, published 2021).
